From ChEMBL document CHEMBL5523725, “Fragment-Based Anti-inflammatory Agent Design and Target Identification: Discovery of AF-45 as an IRAK4 Inhibitor to Treat Ulcerative Colitis and Acute Lung Injury” (J Med Chem, 2024)
The source made the active and inactive calls. No cut-off for these calls is given here.

Experiments:
[1] = Cmax in male Sprague-Dawley rat at 1 mg/kg, iv administered via tail vein and measured upto 24 hrs; assay type: ADME, organism-based; conditions: in vivo
Mus musculus [2] = experiment: Antiinflammatory activity in LPS induced C57BL/6 mouse model of acute lung injury assessed as reduction in over activation of spleen at 20 to 40 mg/kg, ip preadministered for 30 mins followed by LPS administration and measured after 6 hrs by F4/80 labeling based immunohistochemical analysis; assay type: functional, organism-based; conditions: dose 20-40 mg/kg, time 6.5 hrs
J774.A1 [3] = experiment: cells; conditions: Mus musculus
Description: Antiinflammatory activity in LPS-induced mouse J774.A1 cells assessed as inhibition of TNF-alpha release pretreated for 30 mins followed by LPS stimulation and measured after 24 hrs by ELISA

[4] = molecular target: T1, Interleukin-1 receptor-associated kinase 4 (Mus musculus) (UniProt Q8R4K2); experiment: Thermal stabilization of IRAK4 in mouse RAW264.7 cells at 10 uM measured after 4 hrs by CETSA; assay type: cell-based
T1 sequence (whole entry): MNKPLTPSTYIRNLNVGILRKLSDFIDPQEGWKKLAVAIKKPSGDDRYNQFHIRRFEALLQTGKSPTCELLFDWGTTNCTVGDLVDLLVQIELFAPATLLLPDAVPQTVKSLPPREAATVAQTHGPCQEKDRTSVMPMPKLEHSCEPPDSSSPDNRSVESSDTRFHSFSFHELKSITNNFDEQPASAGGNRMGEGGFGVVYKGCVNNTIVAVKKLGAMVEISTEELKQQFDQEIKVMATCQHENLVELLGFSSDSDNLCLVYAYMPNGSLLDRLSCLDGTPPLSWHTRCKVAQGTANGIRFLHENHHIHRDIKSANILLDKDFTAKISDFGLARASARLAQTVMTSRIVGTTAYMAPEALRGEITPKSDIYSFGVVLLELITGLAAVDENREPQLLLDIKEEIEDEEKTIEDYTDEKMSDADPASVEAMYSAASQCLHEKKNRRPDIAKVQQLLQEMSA

RAW264.7 [5] = experiment: Antiinflammatory activity in LPS-induced mouse RAW264.7 cells assessed as inhibition of IL-6 mRNA transcription pretreated for 2 hrs followed by LPS stimulation and measured after 6 hrs by RT-qPCR analysis; assay type: functional, cell-based; conditions: dose 5-10 µM, time 8.0 hrs
J774.A1 [6] = experiment: cells; conditions: Mus musculus; remark: listed apart in the source
Description: Antiinflammatory activity in LPS-induced mouse J774.A1 cells assessed as inhibition of IL-6 release pretreated for 30 mins followed by LPS stimulation and measured after 24 hrs by ELISA

[7] = Cytotoxicity against mouse RAW264.7 cells assessed as cell viability by MTT assay; assay type: toxicity, cell-based; set-up: concentration or dose not given beside the values; conditions: read-out: Activity
Mus musculus [8] = experiment: Antiinflammatory activity in male C57BL/6 mouse model of DSS-induced ulcerative colitis assessed as reduction in TNF-alpha level in serum at 20 mg/kg, po administered for 11 days with subsequent administration of DSS for 8 days by ELISA; assay type: functional, organism-based; conditions: time 11.0 day
Mus musculus [9] = experiment: Antiinflammatory activity in male C57BL/6 mouse model of DSS-induced ulcerative colitis assessed as reduction in macrophage infiltration in spleen at 10 to 20 mg/kg, po administered for 11 days with subsequent administration of DSS for 8 days by F4/80 labeling based immunohistochemistry analysis; assay type: functional, organism-based; conditions: dose 10-20 mg/kg, time 11.0 day
RAW264.7 [10] = experiment: Inhibition of NFkappaB/MAPK signaling pathway in mouse RAW264.7 cells assessed as reduction in LPS-induced IkappaBalpha degradation at 50 uM by Western blot analysis; assay type: cell-based
RAW264.7 [11] = experiment: Antiinflammatory activity in LPS-induced mouse RAW264.7 cells assessed as inhibition of TNF-alpha mRNA transcription pretreated for 2 hrs followed by LPS stimulation and measured after 6 hrs by RT-qPCR analysis; assay type: functional, cell-based; conditions: dose 5-10 µM, time 8.0 hrs
[12] = molecular target: Mitogen-activated protein kinase 14 (Homo sapiens) (UniProt Q16539); experiment: Inhibition of p38alpha (unknown origin) at 10 uM relative to control
Mitogen-activated protein kinase 14 (Homo sapiens), sequence (Q16539 whole entry): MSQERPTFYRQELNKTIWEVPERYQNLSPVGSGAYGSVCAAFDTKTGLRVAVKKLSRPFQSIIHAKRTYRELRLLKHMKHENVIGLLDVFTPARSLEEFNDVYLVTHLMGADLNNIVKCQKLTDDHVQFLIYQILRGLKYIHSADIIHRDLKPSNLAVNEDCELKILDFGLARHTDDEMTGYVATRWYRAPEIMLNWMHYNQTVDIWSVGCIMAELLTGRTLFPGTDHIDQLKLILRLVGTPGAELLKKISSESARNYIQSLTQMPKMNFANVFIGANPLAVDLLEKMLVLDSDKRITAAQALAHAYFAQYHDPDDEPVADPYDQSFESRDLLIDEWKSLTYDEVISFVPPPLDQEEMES

Mus musculus [13] = experiment: Antiinflammatory activity in LPS induced C57BL/6 mouse model of acute lung injury assessed as reduction in alveolar wall thickening at 20 mg/kg, ip preadministered for 30 mins followed by LPS administration and measured after 6 hrs by H and E staining based analysis; assay type: functional, organism-based; conditions: time 6.5 hrs
[14] = Tmax in male Sprague-Dawley rat at 1 mg/kg, iv administered via tail vein and measured upto 24 hrs; assay type: ADME, organism-based; conditions: in vivo

COc1cc2c(O[C@H]3CC[C@@H](N)CC3)ncnc2cc1OCc1ccccc1
Cmax [1]: 6260 ng/mL
Activity (Mus musculus [2]): Active
IC50 (J774.A1 [3]): 2.75 µM
Activity [4]: Active
Activity (RAW264.7 [5]): Dose-Dependent Effect
IC50 (J774.A1 [6]): 1.54 µM
viability [7]: 98.2%
Activity (Mus musculus [8]): Active
Activity (Mus musculus [9]): Active
inhibition (RAW264.7 [10]): Active
Activity (RAW264.7 [11]): Dose-Dependent Effect
inhibition [12]: 0.03%
Activity (Mus musculus [13]): Active
Tmax [14]: 4.8 min
